The source made the active and inactive calls. The rule behind the calls is not given here.
Experiments:
Mus musculus [1] = experiment: Antithrombotic activity in mouse when administered a dose of 20 mg/kg perorally; format: functional; conditions: route oral
[2] = (§1) Lethal dose in mouse by administering compound intraperitoneally; format: toxicity, organism-based; conditions: in vivo, ip
[3] = Lethal dose in mouse was determined by administering perorally; format: toxicity, organism-based; conditions: in vivo, po
Cavia porcellus [4] = species on record: Cavia porcellus; experiment: Inhibitory activity of thrombin (0.625 IU/mL)-induced platelet aggregation in guinea pig platelet rich plasma after 2 min; format: functional
[5] = divya_inp96 Lethal dose in mouse by administering compound intraperitoneally; format: toxicity, organism-based; conditions: in vivo, ip
Cavia porcellus [6] = species on record: Cavia porcellus; experiment: In vitro inhibitory activity of thrombin (0.625 IU/mL)-induced platelet aggregation in guinea pig platelet rich plasma after 4 min; format: functional
Cavia porcellus [7] = species on record: Cavia porcellus; experiment: In vitro irreversible inhibitory activity of adenosine diphosphate (0.5 uM)-induced platelet aggregation in guinea pig platelet rich plasma; format: functional
Cavia porcellus [8] = species on record: Cavia porcellus; experiment: In vitro reversible inhibitory activity of adenosine diphosphate (0.5 uM)-induced platelet aggregation in guinea pig platelet rich plasma; format: functional
Cavia porcellus [9] = species on record: Cavia porcellus; experiment: In vitro inhibitory activity of collagen (0.8 ug/mL)-induced platelet aggregation in guinea pig platelet rich plasma at a dose of 0.8 ug/mL; format: functional
Rattus norvegicus [10] = experiment: divya_inp96 Antihypertensive activity in hypertensive rats, after peroral administration that lowered the blood pressure by 50 mmHg; format: functional; conditions: po
Rattus norvegicus [11] = species on record: Rattus norvegicus; experiment: Antihypertensive action versus dihydralazine; format: functional
Rattus norvegicus [12] = experiment: Variation in heart rate when 25 mg/kg administered orally in rats; format: functional; conditions: route oral
Cavia porcellus [13] = species on record: Cavia porcellus; experiment: Inotropic activity against guinea pig spontaneously beating atria; format: functional
Rattus norvegicus [14] = experiment: Antihypertensive activity in hypertensive rats, after peroral administration that lowered the blood pressure by 50 mmHg; format: functional; conditions: po
Cavia porcellus [15] = species on record: Cavia porcellus; experiment: In vitro inhibitory activity of thrombin (0.625 IU/mL)-induced platelet aggregation in guinea pig platelet rich plasma after 2 min; format: functional
Rattus norvegicus [16] = experiment: Antihypertensive activity in hypertensive rats, after peroral administration that lowered the blood pressure by 50 mmHg; value ranges from 3.50 to 4.80; format: functional; conditions: po
Mus musculus [17] = experiment: as §1; format: toxicity, organism-based; conditions: in vivo, ip
Rattus norvegicus [18] = experiment: Antihypertensive activity in hypertensive rats, after peroral administration that lowered the blood pressure by 50 mmHg; Valure ranges from 1.67 to 5.40; format: functional; conditions: po
Cavia porcellus [19] = species on record: Cavia porcellus; experiment: In vitro reversible inhibitory activity of adenosine diphosphate (0.5 uM)-induced platelet aggregation in guinea pig platelet rich plasma; NA means inactive; format: functional
Cavia porcellus [20] = species on record: Cavia porcellus; experiment: In vitro irreversible inhibitory activity of adenosine diphosphate (0.5 uM)-induced platelet aggregation in guinea pig platelet rich plasma; NA means inactive; format: functional
Mus musculus [21] = experiment: Antithrombotic activity in mouse when administered a dose of 20 mg/kg perorally; NA means inactive; format: functional, organism-based; parameters: dose 20 mg/kg
Rattus norvegicus [22] = experiment: Antihypertensive activity in hypertensive rats, after peroral administration that lowered the blood pressure by 50 mmHg; value ranges from 2.50 to 6.50; format: functional; conditions: po
Rattus norvegicus [23] = experiment: Antihypertensive activity in hypertensive rats, after peroral administration that lowered the blood pressure by 50 mmHg; value ranges from 6.52 to 14.62; format: functional; conditions: po
Rattus norvegicus [24] = experiment: Antihypertensive activity in hypertensive rats, after peroral administration that lowered the blood pressure by 50 mmHg; value ranges from 0.52 to 4.88; format: functional; conditions: po

For `Nc1ccc2c(c1)CCCC1CC(=O)NN=C21` (stereo not given), the Protection (Mus musculus [1]) was 45%, the LD50 [2] was 483 mg/kg and the LD50 [3] was 700 mg/kg.

Work on `CC(=O)Oc1ccccc1C(=O)O` [ASPIRIN] yielded an Inhibition (Cavia porcellus [4]) of 0%, an LD50 [5] of 6500 mg/kg and a Protection (Mus musculus [1]) of 44%. The Inhibition (Cavia porcellus [6]) was 0%, the Inhibition (Cavia porcellus [7]) was 100% and the Inhibition (Cavia porcellus [8]) was 0%. The Inhibition (Cavia porcellus [9]) was 75% and the LD50 [3] was greater than 1000 mg/kg.

Work on `N/N=c1\[nH][nH]/c(=N\N)c2ccccc12` [DIHYDRALAZINE] yielded an ED50 (Rattus norvegicus [10]) of 64.1 mg/kg, a Relative activity (Rattus norvegicus [11]) of 1 and a Peak effect (Rattus norvegicus [12]) of 68.

For `CC(Cl)C(=O)Nc1ccc2c(c1)CCC1CC(=O)NN=C21` (stereo not given), the Protection (Mus musculus [1]) was 33%, the LD50 [2] was greater than 1000 mg/kg and the LD50 [3] was greater than 1000 mg/kg.

`CC(=O)Nc1ccc2c(c1)CCc1cc(O)nnc1-2` gave a pD2 (Cavia porcellus [13]) of 5.77, a Protection (Mus musculus [1]) of 55% and an ED50 (Rattus norvegicus [14]) of 3.6 mg/kg. It also gave an Inhibition (Cavia porcellus [6]) of 86%, a Relative activity (Rattus norvegicus [11]) of 1.14 and an Inhibition (Cavia porcellus [7]) of 95%. The Inhibition (Cavia porcellus [8]) was 40%, the Peak effect (Rattus norvegicus [12]) was 50 and the Inhibition (Cavia porcellus [9]) was 6%. It also gave an LD50 [2] of 651 mg/kg, an Inhibition (Cavia porcellus [15]) of 81% and an LD50 [3] greater than 1000 mg/kg.

For `CC(=O)Nc1ccc2c(c1)CCC1CC(=O)NN=C21` (stereo in doubt; (-)-3c), the Protection (Mus musculus [1]; 20 mg/kg) was 84%, the Inhibition (Cavia porcellus [6]) was 63% and the Inhibition (Cavia porcellus [7]) was 76%. It also gave an Inhibition (Cavia porcellus [8]) of 37%, an Inhibition (Cavia porcellus [9]) of 10% and an Inhibition (Cavia porcellus [15]) of 62%.

Compound `Oc1cc2c(nn1)-c1ccccc1CC2` has a pD2 (Cavia porcellus [13]) of 4.74, a Protection (Mus musculus [1]) of 33% and an ED50 (Rattus norvegicus [14]) greater than 25 mg/kg. It also gave a Peak effect (Rattus norvegicus [12]) of -35, an LD50 [2] of 707 mg/kg and an LD50 [3] greater than 1000 mg/kg.

With `CC(=O)Nc1ccc2c(c1)CC1CC(=O)NN=C21` (stereo not given) the ED50 (Rattus norvegicus [16]) was 7.1 mg/kg, the pD2 (Cavia porcellus [13]) was 5.95 and the Relative activity (Rattus norvegicus [11]) was 0.58. For the same compound, the Peak effect (Rattus norvegicus [12]) was 53.

Compound `CC(=O)Nc1ccc2c(c1)CCC1CC(=O)NN=C21` (racemic) has a pD2 (Cavia porcellus [13]) of 5.54, a Protection (Mus musculus [1]; 20 mg/kg) of 100% and an Inhibition (Cavia porcellus [6]) of 66%. The Relative activity (Rattus norvegicus [11]) was 1.32, the Inhibition (Cavia porcellus [7]) was 92% and the Inhibition (Cavia porcellus [8]) was 47%. For the same compound, the Peak effect (Rattus norvegicus [12]; 25 mg/kg) was 90, the Inhibition (Cavia porcellus [9]) was 47% and the LD50 (Mus musculus [17]) was 460 mg/kg. The Inhibition (Cavia porcellus [15]) was 65%, the LD50 [3] was greater than 1000 mg/kg and the ED50 (Rattus norvegicus [18]) was 3.1 mg/kg.

With `CC(=O)Nc1ccc2c(c1)C1=NNC(=O)CC1CC2` (stereo not given) the Protection (Mus musculus [1]) was 25%, the Inhibition (Cavia porcellus [6]) was 14% and the Inhibition (Cavia porcellus [7]) was 6%. It also gave an Inhibition (Cavia porcellus [8]) of 0%, an Inhibition (Cavia porcellus [9]) of 62% and an LD50 [2] greater than 1000 mg/kg. For the same compound, the Inhibition (Cavia porcellus [15]) was 17% and the LD50 [3] was greater than 1000 mg/kg.

`Cn1c(=O)c2[nH]cnc2n(C)c1=O.Cn1c(=O)c2[nH]cnc2n(C)c1=O.NCCN` [AMINOPHYLLINE] showed a pD2 (Cavia porcellus [13]) of 5.91.

For `CC(=O)Nc1ccc2c(c1)CCCC1CC(=O)NN=C21` (stereo not given), the Protection (Mus musculus [1]) was 46%, the LD50 [2] was greater than 1000 mg/kg and the LD50 [3] was greater than 1000 mg/kg.

For `CC(=O)Nc1cccc2c1CCC1CC(=O)NN=C21` (stereo not given), the inhibition (Cavia porcellus [19]) was “inactive”, the inhibition (Cavia porcellus [20]) was “inactive” and the Protection (Mus musculus [21]) was “inactive”. The LD50 [2] was 378 mg/kg and the LD50 [3] was greater than 1000 mg/kg.

For `N#Cc1ccc2c(c1)CCC1CC(=O)NN=C21` (stereo not given), the Protection (Mus musculus [21]) was “inactive”, the LD50 [2] was 560 mg/kg and the LD50 [3] was greater than 1000 mg/kg.

Compound `Nc1ccc2c(c1)CCC1CC(=O)NN=C21` (stereo not given) has a pD2 (Cavia porcellus [13]) of 4.93, an ED50 (Rattus norvegicus [22]) of 3.5 mg/kg and a Protection (Mus musculus [1]) of 73%. It also gave an Inhibition (Cavia porcellus [6]) of 27%, a Relative activity (Rattus norvegicus [11]) of 1.17 and an Inhibition (Cavia porcellus [7]) of 42%. The Inhibition (Cavia porcellus [8]) was 10%, the Peak effect (Rattus norvegicus [12]) was 90 and the Inhibition (Cavia porcellus [9]) was 21%. It also gave an LD50 [2] of 611 mg/kg, an Inhibition (Cavia porcellus [15]) of 13% and an LD50 [3] greater than 1000 mg/kg.

With `Nc1ccc2c(c1)CC1CC(=O)NN=C21` (stereo not given) the ED50 (Rattus norvegicus [23]) was 11 mg/kg, the pD2 (Cavia porcellus [13]) was 5.05 and the Relative activity (Rattus norvegicus [11]) was 0.37. The Peak effect (Rattus norvegicus [12]) was 49.

In the case of `CC(=O)Nc1ccc2c(c1)CCC1CC(=O)NN=C21` (single isomer, unassigned; (+)), the pD2 (Cavia porcellus [13]) is reported as 5.65, the Protection (Mus musculus [1]; 20 mg/kg) is reported as 89% and the ED50 (Rattus norvegicus [24]) is reported as 2.1 mg/kg. It also gave an Inhibition (Cavia porcellus [6]) of 100%, a Relative activity (Rattus norvegicus [11]) of 1.95 and an Inhibition (Cavia porcellus [7]) of 77%. It also gave an Inhibition (Cavia porcellus [8]) of 36%, a Peak effect (Rattus norvegicus [12]; 25 mg/kg) of 55 and an Inhibition (Cavia porcellus [9]) of 2%. The LD50 (Mus musculus [17]) was greater than 1000 mg/kg and the Inhibition (Cavia porcellus [15]) was 91%.

Compound `O=C1CC2CCc3ccccc3C2=NN1` (stereo not given) has a pD2 (Cavia porcellus [13]) of 4.98, a Protection (Mus musculus [1]) of 59% and an ED50 (Rattus norvegicus [14]) of 23.5 mg/kg. It also gave an Inhibition (Cavia porcellus [6]) of 97%, an Inhibition (Cavia porcellus [7]) of 95% and an Inhibition (Cavia porcellus [8]) of 30%. For the same compound, the Peak effect (Rattus norvegicus [12]) was 70, the Inhibition (Cavia porcellus [9]) was 100% and the LD50 [2] was 450 mg/kg. It also gave an Inhibition (Cavia porcellus [15]) of 84% and an LD50 [3] of 666 mg/kg.

From ChEMBL document CHEMBL1124348, “Synthesis and biological evaluation of substituted benzo[h]cinnolinones and 3H-benzo[6,7]cyclohepta[1,2-c]pyridazinones: higher homologues of the antihypertensive and antithrombotic 5H-indeno[1,2-c]pyridazinones” (J Med Chem, 1989)
